Reference: ChEMBL document CHEMBL3784920, “Synthesis and Pharmacological Evaluation of Novel Adenine-Hydrogen Sulfide Slow Release Hybrids Designed as Multitarget Cardioprotective Agents” (J Med Chem, 2016)
Calls of active or inactive are those of the source. The calls are words filed in the database; no cut-off is given here.

Tests used:
[1] = system: Oryctolagus cuniculus; test: Toxicity in New Zealand white rabbit myocardial ischemia/reperfusion injury model assessed as heart rate at 1.79 umol/kg, administered as single bolus dose at 180 mins of reperfusion (reference value: 254 +/- 11 bpm); assay type: organism-based; conditions: in vivo, 3 h
[2] = system: Oryctolagus cuniculus; test: Toxicity in New Zealand white rabbit assessed as baseline mean blood pressure at 1.79 umol/kg, administered as single bolus dose (reference value: 74 +/- 5 mmHg); assay type: organism-based; conditions: in vivo
[3] = system: Oryctolagus cuniculus; test: Toxicity in New Zealand white rabbit myocardial ischemia/reperfusion injury model assessed as mean blood pressure at 1.79 umol/kg, administered as single bolus dose at 20 mins of sustained ischemia (reference value: 64 +/- 5 mmHg); assay type: organism-based; conditions: in vivo
[4] = system: Oryctolagus cuniculus; test: Toxicity in New Zealand white rabbit myocardial ischemia/reperfusion injury model assessed as heart rate at 1.79 umol/kg, administered as single bolus dose at 20 mins of sustained ischemia (reference value: 276 +/- 9 bpm); assay type: organism-based; conditions: in vivo
[5] = system: Oryctolagus cuniculus; test: Toxicity in New Zealand white rabbit myocardial ischemia/reperfusion injury model assessed as mean blood pressure at 1.79 umol/kg, administered as single bolus dose at 180 mins of reperfusion (reference value: 60 +/- 4 mmHg); assay type: organism-based; conditions: in vivo, iv, 3 h
[6] = system: Oryctolagus cuniculus; test: Toxicity in New Zealand white rabbit assessed as heart weight at 1.79 umol/kg, administered as single bolus dose (reference value: 7.2 +/- 0.3 g); assay type: organism-based; conditions: in vivo
[7] = system: Oryctolagus cuniculus; test: Toxicity in New Zealand white rabbit assessed as baseline heart rate at 1.79 umol/kg, administered as single bolus dose (reference value: 269 +/- 10 bpm); assay type: organism-based; conditions: in vivo
[8] = Induction of H2S release in potassium phosphate buffer at pH 7.4 after 15 mins by methylene-blue assay; assay type: physicochemical; conditions: pH 7.4, 0.25 h
[9] = Induction of H2S release in ammonium carbonate buffer at 100 uM at pH 7.4 by mass spectrometry in presence of glutathione; assay type: physicochemical; conditions: pH 7.4, 100 µM
[10] = system: Oryctolagus cuniculus; test: Cardioprotective activity in New Zealand white rabbit myocardial ischemia/reperfusion injury model assessed as reduction in infarct size at 1.79 umol/kg, administered as single bolus dose at 20 mins before sustained ischemia by TTC staining in presence of non selective adenosine receptor inhibitor SPT (reference value: 47.9 +/- 0.7 %); assay type: functional, Myocardium; parameters: scale not given: the % may be the effect or the level left
[11] = system: Oryctolagus cuniculus; test: Increase in VASP phosphorylation at Ser239 in tissue from ischemic area of myocardium in New Zealand white rabbit myocardial ischemia/reperfusion injury model at 1.79 umol/kg administered as single bolus dose at 10th min of reperfusion by Western blot analysis; assay type: functional, organism-based
[12] = system: Oryctolagus cuniculus; test: Toxicity in New Zealand white rabbit assessed as heart weight at 1.79 umol/kg, administered as single bolus dose in presence of non selective adenosine receptor inhibitor SPT (reference value: 7.2 +/- 0.3 g); assay type: organism-based; conditions: in vivo
[13] = system: Oryctolagus cuniculus; test: Toxicity in New Zealand white rabbit myocardial ischemia/reperfusion injury model assessed as mean blood pressure at 1.79 umol/kg, administered as single bolus dose at 180 mins of reperfusion in presence of SPT (reference value: 60 +/- 4 mmHg); assay type: organism-based; conditions: in vivo, 3 h
[14] = system: RLF-6; test: Induction of H2S release in RLF-6 cells assessed as cGMP accumulation at 250 uM after 5 mins by enzyme immuno assay; assay type: functional, cell-based; conditions: Rattus norvegicus
[15] = Induction of H2S release in potassium phosphate buffer at 100 uM at pH 7.4 by Amperometric method; assay type: physicochemical; conditions: pH 7.4, 100 µM
[16] = system: Oryctolagus cuniculus; test: Toxicity in New Zealand white rabbit myocardial ischemia/reperfusion injury model assessed as heart rate at 1.79 umol/kg, administered as single bolus dose at 20 mins of sustained ischemia in presence of non selective adenosine receptor inhibitor SPT (reference value: 276 +/- 9 bpm); assay type: organism-based; conditions: in vivo
[17] = Induction of H2S release in potassium phosphate buffer at 20 uM at pH 7.4 by Amperometric method; assay type: physicochemical; conditions: pH 7.4, 20 µM
[18] = system: Oryctolagus cuniculus; test: Toxicity in New Zealand white rabbit assessed as baseline mean blood pressure at 1.79 umol/kg, administered as single bolus dose in presence of SPT (reference value: 74 +/- 5 mmHg); assay type: organism-based; conditions: in vivo
[19] = system: Oryctolagus cuniculus; test: Increase in PLN phosphorylation at Ser16/Thr17 in tissue from ischemic area of myocardium in New Zealand white rabbit myocardial ischemia/reperfusion injury model at 1.79 umol/kg administered as single bolus dose at 10th min of reperfusion by Western blot analysis relative to control; assay type: functional, organism-based
[20] = Induction of H2S release in ammonium carbonate buffer at 100 uM at pH 7.4 by mass spectrometry; assay type: physicochemical; conditions: pH 7.4, 100 µM
[21] = Induction of H2S release in potassium phosphate buffer at 100 uM at pH 7.4 by Amperometric method in presence of glutathione; assay type: physicochemical; conditions: pH 7.4, 100 µM
[22] = system: Oryctolagus cuniculus; test: Cardioprotective activity in New Zealand white rabbit myocardial ischemia/reperfusion injury model assessed as reduction in infarct size at 1.79 umol/kg, administered as single bolus dose at 20th min of sustained ischemia by TTC staining (reference value: 47.9 +/- 0.7 %); assay type: functional, Myocardium; parameters: scale not given: the % may be the effect or the level left
[23] = system: Oryctolagus cuniculus; test: Toxicity in New Zealand white rabbit myocardial ischemia/reperfusion injury model assessed as heart rate at 1.79 umol/kg, administered as single bolus dose at 180 mins of reperfusion in presence of non selective adenosine receptor inhibitor SPT (reference value: 254 +/- 11 bpm); assay type: organism-based; conditions: in vivo, 3 h
[24] = system: Oryctolagus cuniculus; test: Toxicity in New Zealand white rabbit myocardial ischemia/reperfusion injury model assessed as mean blood pressure at 1.79 umol/kg, administered as single bolus dose at 20 mins of sustained ischemia in presence of non selective adenosine receptor inhibitor SPT (reference value: 64 +/- 5 mmHg); assay type: organism-based; conditions: in vivo, iv
[25] = system: Oryctolagus cuniculus; test: Toxicity in New Zealand white rabbit assessed as baseline heart rate at 1.79 umol/kg, administered as single bolus dose in presence of non selective adenosine receptor inhibitor SPT (reference value: 269 +/- 10 bpm); assay type: organism-based; conditions: in vivo
[26] = system: RLF-6; test: Induction of H2S release in RLF-6 cells assessed as cGMP accumulation after 5 mins by enzyme immuno assay; assay type: functional, cell-based; conditions: Rattus norvegicus
[27] = system: Oryctolagus cuniculus; test: Toxicity in New Zealand white rabbit assessed as heart weight at 3.58 umol/kg, administered as single bolus dose (reference value: 7.2 +/- 0.3 g); assay type: organism-based; conditions: in vivo
[28] = system: Oryctolagus cuniculus; test: Toxicity in New Zealand white rabbit myocardial ischemia/reperfusion injury model assessed as heart rate at 3.58 umol/kg, administered as single bolus dose at 180 mins of reperfusion (reference value: 254 +/- 11 bpm); assay type: organism-based; conditions: in vivo, 3 h
[29] = system: Oryctolagus cuniculus; test: Toxicity in New Zealand white rabbit myocardial ischemia/reperfusion injury model assessed as mean blood pressure at 3.58 umol/kg, administered as single bolus dose at 180 mins of reperfusion (reference value: 60 +/- 4 mmHg); assay type: organism-based; conditions: in vivo, 3 h
[30] = system: Oryctolagus cuniculus; test: Toxicity in New Zealand white rabbit assessed as baseline mean blood pressure at 3.58 umol/kg, administered as single bolus dose (reference value: 74 +/- 5 mmHg); assay type: organism-based; conditions: in vivo
[31] = system: Oryctolagus cuniculus; test: Toxicity in New Zealand white rabbit myocardial ischemia/reperfusion injury model assessed as mean blood pressure at 3.58 umol/kg, administered as single bolus dose at 20 mins of sustained ischemia (reference value: 64 +/- 5 mmHg); assay type: organism-based; conditions: in vivo
[32] = system: Oryctolagus cuniculus; test: Cardioprotective activity in New Zealand white rabbit myocardial ischemia/reperfusion injury model assessed as reduction in infarct size at 3.58 umol/kg, administered as single bolus dose at 20th min of sustained ischemia by TTC staining (reference value: 47.9 +/- 0.7 %); assay type: functional, Myocardium; parameters: scale not given: the % may be the effect or the level left
[33] = system: Oryctolagus cuniculus; test: Toxicity in New Zealand white rabbit myocardial ischemia/reperfusion injury model assessed as heart rate at 3.58 umol/kg, administered as single bolus dose at 20 mins of sustained ischemia (reference value: 276 +/- 9 bpm); assay type: organism-based; conditions: in vivo
[34] = system: Oryctolagus cuniculus; test: Toxicity in New Zealand white rabbit assessed as baseline heart rate at 3.58 umol/kg, administered as single bolus dose (reference value: 269 +/- 10 bpm); assay type: organism-based; conditions: in vivo

SMILES | Activity [1] [bpm] | Activity [2] [mmHg] | Activity [3] [mmHg] | Activity [4] [bpm] | Activity [5] [mmHg] | Activity [6] [g] | Activity [7] [bpm] | Activity [8] | Activity [14] | Activity [22] [%] | further results
[Na+].[SH-] [SODIUM HYDROSULFIDE] | 262 | 81 | 76 | 268 | 68 | 7.1 | 273 | – | – | – | –
NC(=S)c1ccc(OC[C@H]2O[C@@H](n3cnc4c(N)ncnc43)[C@H](O)[C@@H]2O)cc1 | 256 | 82 | 83 | 256 | 76 | 7.6 | 258 | Dose-dependent effect | Active | 20.1 | Activity [9]: Not Active; Activity [10]: 18.3%; Activity [11]: Active; Activity [12]: 7.2 g; Activity [13]: 77 mmHg; Activity [15]: Active; Activity [16]: 260 bpm; Activity [17]: Not Active; Activity [18]: 86 mmHg; Activity [19]: Active; Activity [20]: 0.8 µM/min; Activity [21]: Not Active; Activity [23]: 260 bpm; Activity [24]: 71 mmHg; Activity [25]: 262 bpm
Nc1ncnc2c1ncn2[C@@H]1O[C@H](CO)[C@@H](O)[C@H]1O | – | – | – | – | – | – | – | – | – | – | Activity [26]: inactive
CC1(C)O[C@@H]2[C@H](O1)[C@@H](COc1ccc(C(N)=S)cc1)O[C@H]2n1cnc2c(N)ncnc21 | – | – | – | – | – | – | – | Dose-dependent effect | Active | – | –
Nc1ncnc2c1ncn2CCCCO | 270 | 95 | 88 | 266 | 90 | 7.3 | 275 | – | – | 32.4 | Activity [26]: inactive
Nc1ncnc2c1ncn2[C@@H]1O[C@H](COc2ccc(-c3cc(=S)ss3)cc2)[C@@H](O)[C@H]1O | – | – | – | – | – | – | – | Dose-dependent effect | – | – | –
CC1(C)O[C@@H]2[C@H](O1)[C@@H](COc1ccc(-c3cc(=S)ss3)cc1)O[C@H]2n1cnc2c(N)ncnc21 | – | – | – | – | – | – | – | Dose-dependent effect | – | – | –
Nc1ncnc2c1ncn2CCCCOc1ccc(-c2cc(=S)ss2)cc1 | – | – | – | – | – | – | – | Dose-dependent effect | – | – | –
NC(=S)c1ccc(OCCCCn2cnc3c(N)ncnc32)cc1 | 255 | 90 | 82 | 276 | 80 | 7.2 | 266 | Dose-dependent effect | Active | 16.6 | Activity [27]: 7.4 g; Activity [28]: 258 bpm; Activity [29]: 52 mmHg; Activity [10]: 16.9%; Activity [11]: Active; Activity [30]: 78 mmHg; Activity [12]: 7.5 g; Activity [13]: 76 mmHg; Activity [31]: 40 mmHg; Activity [32]: 26.7%; Activity [16]: 270 bpm; Activity [18]: 81 mmHg; Activity [19]: Active; Activity [33]: 242 bpm; Activity [23]: 276 bpm; Activity [24]: 76 mmHg; Activity [34]: 285 bpm; Activity [25]: 278 bpm
NC(=S)c1ccc(O)cc1 | – | – | – | – | – | – | – | – | Active | 24.9 | –
